According to patent US5776935A, “Pyrido-phtalazin diones and their use against neurological disorders associated with excitotoxicity and malfunctioning of glutamatergic neurotransmission” (Merz & Co. GmbH & Co., priority 1996, dated 1998):
Like-named read-outs stand apart in the source and are kept apart here.

Legend:
NMDA receptor [1] = biological target: T1, NMDA receptor (Rattus norvegicus, UniProt P35439); test: Patch clamp, inward currents to NMDA in cultured superior colliculus neurones; assay type: cell-based; details: NMDA 200 μM, glycine 1 μM
T1 construct: endogenous in cells
Protocol: Cells were mechanically dissociated in 0.05% DNAase / 0.3% ovomucoid (Sigma) following a 15 minute pre-incubation with 0.66% trypsin / 0.1% DNAase (Sigma). The dissociated cells were then centrifuged at 18G for 10 minutes, resuspended in minimum essential medium (Gibco) and plated at a density of 200,000 cells cm onto poly-L-lysine (Sigma)-precoated plastic petri dishes (Falcon). The cells were nourished with NaHCO3 /HEPES-buffered minimum essential medium supplemented with 5% foetal calf serum and 5% horse serum (Gibco) and incubated at 37° C. with 5%CO2 at 95% humidity. The medium was exchanged completely following inhibition of further glial mitosis with cytosine-β-D-arabinofuranoside (20 μM Sigma) after about 7 days in vitro. Thereafter the medium was exchanged partially twice weekly. […] Moreover, the relatively small neurones (soma 15-20 μm .phi.) are ideally suited to minimise problems of buffered diffusion for concentration clamp experiments.
Patch clamp recordings were made from these neurones with polished glass electrodes (4-6 m.OMEGA.) in the whole cell mode at room temperature (20°-22° C.) with the aid of an EPC-7 amplifier (List). Test substances were applied by switching channels of a custom made fast superfusion system with a common outflow (10-20 ms exchange times). The contents of the intracellular solution were as follows (mM): CsCl (120), TEACl (20), EGTA (10), MgCl2 (1), CaCl2 (0.2), glucose (10), ATP (2), cAMP (0.25); pH was adjusted to 7.3 with CsOH or HCl. The extracellular solutions had the following basic composition (mM): NaCl (140), KCl (3), CaCl2 (0.2), glucose (10), HEPES (10), sucrose (4.5), tetrodotoxin (TTX 3*10-4). For most experiments glycine (1 μM) was present in all solutions. Experiments to test the glycine-dependence of the tricyclic "pyrido-phtalazin diones" were performed in the continuous presence of increasing concentrations of glycine (1-10 μM).
This effect was mediated at the glycineB site as evidenced by the parallel shift in the concentration-response curves in the presence of increasing glycine concentrations. Thus the Kbs of Mrz 2/502 as assessed according to the Cheng-Prusoff relationship were similar in glycine 1, 3 and 10 μM (80, 124 and 118 nM respectively). […] Choline derivatives had similar potencies to the free acids in vitro (Table14b).

[2] = biological target: T2, glycineB site of the NMDA receptor (rat cortical membranes) (Rattus norvegicus, UniProt P35439); test: [3H]5,7-DCKA binding assay; details: 10 nM [3H]5,7-DCKA
T2 construct: The cortex was dissected and homogenised in 20 volumes of ice-cold 0.32M sucrose; from tissue; host or cells: brain cortex membranes of male Sprague-Dawley rats
Protocol: Tissue preparation was performed according to Foster and Wong (1987). Male Sprague-Dawley rats (200-250g) were decapitated and their brains were removed rapidly. The cortex was dissected and homogenised in 20 volumes of ice-cold 0.32M sucrose using a glass-Teflon homogenizer. The homogenate was centrifuged at 1000×g for 10 min. The pellet was discarded and the supernatant centrifuged at 20,000×g for 20 min. The resulting pellet was resuspended in 20 volumes of distilled water and centrifuged for 20 min at 8000×g. Then the supernatant and the buffy coat were centrifuged three times (48,000× g for 20 min) in the presence of 5 mM Tris-HCl, pH 7.4. All centrifugation steps were carried out at 4° C. After resuspension in 5 volumes of 5 mM Tris-HCl, pH 7.4 the membrane suspension was frozen rapidly at -80° C. until the day of assay. On the day of assay the membranes were thawed and washed four times by resuspension in 5 mM Tris-HCl, pH 7.4 and centrifugation at 48,000× g for 20 min. The final pellet was suspended in assay buffer.
The amount of protein in the final membrane preparation was determined according to the method of Lowry (1951) with some modifications (Hartfree, 1972). 50 μl of Protein samples (in triplicates) were diluted to 1 ml with distilled water and treated with 0.9 ml of a solution containing 2 g potassium sodium tartrate and 10 g Na2 CO3 in 500 ml 1N NaOH and 500ml water. Blank and standard (with bovine serum albumin) were set up in the same way. The tubes were placed in a water bath at 50° C. for 10 min. and cooled at room temperature. 100 μl of a solution containing 2 g potassium sodium tartrate and 1 g CuSO4 x 5 H2 O in 90 ml water and 10 ml 1N NaOH were added. The samples were left at room temperature for at least 10 min., then 3 ml of Folin-Ciocalteu reagent (1 ml of reagent diluted with 15 ml water) was added rapidly during mixing. The tubes were again heated at 50° C. for 10 min. and cooled to room temperature. Absorbencies were then read in 1 cm cuvets at 650 nm. The final protein concentration used for our studies was between 100 and 250 μg/ml.
Incubation in both binding assays was terminated using a Millipore filter system. The samples, all in triplicate, were rinsed three times with 2.5 ml ice cold assay buffer over glass fibre filters obtained from Schleicher & Schuell under a constant vacuum. Following separation and rinse the filters were placed into scintillation liquid (5 ml; Ultima Gold) and radioactivity retained on the filters was determined by using conventional liquid scintillation counter (Hewlett Packard, Liquid Scintillation Analyser). `Total binding` was the absolute amount of radioligand bound in the absence of any additives whereas `non-specific` binding was determined in the presence of a high concentration of competitor.
[^3 H]5,7-DCKA binding assay
Experiments were performed according to the methods modified from previous groups (Canton et al., 1991; Yoneda et al., 1993). Membranes were suspended and incubated in 10 mM Tris-HCl, pH 7.4. Incubation time was 45 min at 4° C. Non-specific binding of [^3 H]5,7-DCKA was defined by the addition of unlabeled glycine at 0.1 mM. The stop-solution contained 10 mM Tris-HCl and 10 mM magnesium sulphate, pH 7.4. Filtration was performed as rapidly as possible. Displacement experiments were performed with a fixed [^3 H]5,7-DCKA concentration of 10 nM. Test compounds were diluted in water or DMSO and added in at least 5 different concentrations.

NMDA receptor [3] = biological target: T3, NMDA receptor (Mus musculus, UniProt P35438); test: Pentylenetetrazol (PTZ)-induced convulsions; assay type: in vivo; details: ip, 0.25 h, i.p., PTZ 90 mg/kg i.p., read-out: PTZ ID50
T3 construct: from tissue; host or cells: living mice (albino Swiss males for NMDA and PTZ tests, NMR females for MES)
Protocol: (§1) To assess NMDA receptor antagonistic properties of the tested agents by assessing anticonvulsive effects. Additionally the role of organic acid transporters in the elimination from the brain of tested agents was assessed by using an inhibitor, Probenicid, on the duration of anticonvulsive activity.
(§2) Male albino Swiss mice (19-21 g) housed 10-15 per cage were used for the NMDA lethality test (Leander et al., 1988). For pentylenetetrazol (PTZ)-induced convulsions male albino Swiss mice (25-34 g.) housed 40 per cage (58×38×20 cm) were used while in the maximal electroshock (MES) and motor impairment tests NMR female mice (18-28 g) housed 5 per cage were employed. All animals were kept with water and food ad libittum under a 12-h light-dark cycle (light on at 6 a.m.), and at a controlled temperature (20°±0.5° C.). All experiments were performed between 10 a.m. and 5 p.m. Tested agents were injected 15 min. i.p before the induction of convulsions if not stated otherwise (see below). Mrz 2/502 was dissolved in saline added with NaOH. Most other agents were dissolved in the following solution: 0.606 g Tris; 5.0 g. glucose; 0.5 g. Tween 80; and 95 ml water. The choline and tetramethylammonium salts were dissolved in distilled water.
Pentylenetetrazol was injected at a dose of 90 mg/kg (i.p). The presence of general tonic convulsions was then scored for 30 min as this parameter is more sensitive to NMDA receptor antagonists than clonic convulsions. The pharmacological end-point was taken as the presence of tonus in the hind limbs with stretching.

[4] = In vivo systemic and / or CNS availability
NMDA receptor [5] = biological target: T3, NMDA receptor; test: Maximal electroshock (MES)-induced tonic convulsions; assay type: in vivo; details: i.p.
Protocol: as §1, §2
MES (100 Hz, 0.5 sec shock duration, 50 mA shock intensity, 0.9 ms impulse duration, Ugo Basile) was applied through corneal electrodes. The presence of tonic convulsions was scored (tonic extension of hind paws with minimum angle to the body of 90°). In an additional experiment mice were injected with Probenicid (200 mg/kg) 30 min before administration of the tested agents to assess the role of organic acid transport in elimination (duration of action). The aim was to obtain ED50 s for all parameters scored using the Litchfield Wilcoxon (1949) test for quantal dose responses.

IC50 (NMDA receptor [1]; peak currents, read-out: Peak NMDA IC50): 51.2 µM | IC50 (NMDA receptor [1]; plateau (steady-state) currents, read-out: Plateau NMDA IC50): 13.8 µM | IC50 [2]: 16 µM | in vivo systemic and / or CNS availability versus associated class I compounds [4]: much better
SMILES: O=c1[nH]nc(O)c2c1cc1ccccc1[n+]2[O-] [Mrz 2/499, 4-hydroxy-1-oxo-1,2-dihydro-pyridazino[4,5-b]-quinoline 5-oxide]
ED50 (NMDA receptor [3]): 18.6 mg/kg | activity in the MES test (NMDA receptor [5]): effective | MES ID50 (NMDA receptor [5]; 15 min before induction, listed as 499, 15 min): 87.0 mg/kg
